# Patent US10570122B2, “Compounds with anti-tumoral activity” (AB Science, priority 2015, dated 2020)
# Columns and labels:
# [1] = test system: BXPC3; assay: CellTiter-Blue cell-based survival/proliferation assay, BXPC3; details: Homo sapiens, BXPC-3; BXPC3 pancreas tumor cell line, 48 h
# Experimental: (§1) Cell-Based Proliferation Screening of Compounds
# (§2) CellTiter-Blue cell-based survival/proliferation assay (Promega G8080) was performed on tumor cell lines. A total of 1·10^4 cells/well/50 μl were seeded in a 96-wells plate. Treatment was initiated by addition of a 2× drug solution of 1/10 serial dilutions ranging from 0 to 10 μM. Cells were grown for 48 h at 37° C. and then incubated with 10 μl/well of Promega CellTiter-Bleue reagent for 4 h at 37° C. The amount of resorufin dye formed was quantified by its fluorescence emission at 590 nm using a scanning multiwell spectrophotometer (OPTIMA, BMG labtech, France). A blank well without cells was used as a background control for the spectrophotometer.
# [2] = test system: DLD1; assay: CellTiter-Blue cell-based survival/proliferation assay, DLD1; details: Homo sapiens, DLD-1; DLD_1 colorectal tumor cell line, 48 h
# Experimental: as §1, §2
# [3] = test system: PC3; assay: CellTiter-Blue cell-based survival/proliferation assay, PC3; details: Homo sapiens, PC-3; PC3 prostate tumor cell line, 48 h
# Experimental: as §1, §2
# [4] = test system: HCT116; assay: CellTiter-Blue cell-based survival/proliferation assay, HCT116; details: Homo sapiens, HCT-116; HCT116 colorectal tumor cell line, 48 h
# Experimental: as §1, §2
# [5] = test system: PLCPRF5; assay: CellTiter-Blue cell-based survival/proliferation assay, PLCPRF5; details: Homo sapiens, PLC-PRF-5; PLC_PRF5 liver tumor cell line, 48 h
# Experimental: as §1, §2
# [6] = test system: TOV112D; assay: CellTiter-Blue cell-based survival/proliferation assay, TOV112D; details: Homo sapiens; TOV112D ovary tumor cell line, 48 h
# Experimental: as §1, §2
# [7] = test system: SW579; assay: CellTiter-Blue cell-based survival/proliferation assay, SW579; details: Homo sapiens; SW579 head & neck tumor cell line, 48 h
# Experimental: as §1, §2
# [8] = test system: H1299; assay: CellTiter-Blue cell-based survival/proliferation assay, H1299; details: Homo sapiens, NCI-H1299; H1299 lung tumor cell line, 48 h
# Experimental: as §1, §2
# [9] = test system: HUT78; assay: CellTiter-Blue cell-based survival/proliferation assay, HUT78; details: Homo sapiens, Lymphoma cell line HUT78, 48 h, read-out: Anti-tumoral activity (measured IC50) HUT78
# Experimental: as §1, §2
# [10] = test system: panel of about 34 human tumor cell lines; assay: Cell-based proliferation screening on panel of tumor cell lines; details: solid tumor cell line, cell line unknown, 48 h, read-out: IC50, solid tumor cell line of column 6 (last section of Table 3)
# Experimental: Compounds of formula (I) were tested against a panel of about 34 human tumor cell lines representing 17 cancer type, namely leukemia (represented by 1 cell line), lymphoma (4 cell lines), myeloma (1 cell line), colorectal (2 cell lines), head and neck (3 cell lines), lung (3 cell lines), melanoma (2 cell lines), pancreas (2 cell lines), prostate (2 cell lines), ovary (2 cell lines) breast (2 cell lines), kidney (2 cell lines), stomach (2 cell lines), liver (2 cell lines), glioblastoma (2 cell lines), osteosarcoma (1 cell line), Ewing Sarcoma (1 cell line).
# as §1, §2
# [11] = test system: HGC27; assay: CellTiter-Blue cell-based survival/proliferation assay, HGC27; details: Homo sapiens, HGC-27; HGC27 stomach tumor cell line, 48 h
# Experimental: as §1, §2
# [12] = test system: KARPAS299; assay: CellTiter-Blue cell-based survival/proliferation assay, KARPAS299; details: Homo sapiens, KARPAS-299, Lymphoma cell line KARPAS299, 48 h, read-out: Anti-tumoral activity (measured IC50) KARPAS299
# Experimental: as §1, §2
# [13] = test system: CALU6; assay: CellTiter-Blue cell-based survival/proliferation assay, CALU6; details: Homo sapiens, Calu-6; CALU6 lung tumor cell line, 48 h
# Experimental: as §1, §2
# [14] = test system: BT20; assay: CellTiter-Blue cell-based survival/proliferation assay, BT20; details: Homo sapiens, BT-20; BT20 breast tumor cell line, 48 h
# Experimental: as §1, §2
# [15] = test system: PANC1; assay: CellTiter-Blue cell-based survival/proliferation assay, PANC1; details: Homo sapiens, PANC-1; PANC_1 pancreas tumor cell line, 48 h
# Experimental: as §1, §2
# [16] = test system: HEP2; assay: CellTiter-Blue cell-based survival/proliferation assay, HEP2; details: Homo sapiens, HEp-2; HEP2 head & neck tumor cell line, 48 h
# Experimental: as §1, §2
# [17] = test system: A498; assay: CellTiter-Blue cell-based survival/proliferation assay, A498; details: Homo sapiens; A498 kidney tumor cell line, 48 h
# Experimental: as §1, §2
# [18] = test system: A549; assay: CellTiter-Blue cell-based survival/proliferation assay, A549; details: Homo sapiens; A549 lung tumor cell line, 48 h
# Experimental: as §1, §2
# [19] = test system: REC1; assay: CellTiter-Blue cell-based survival/proliferation assay, REC1; details: Homo sapiens, Lymphoma cell line REC1, 48 h, read-out: Anti-tumoral activity (measured IC50) REC1
# Experimental: as §1, §2
# [20] = test system: HL60; assay: CellTiter-Blue cell-based survival/proliferation assay, HL60; details: Homo sapiens, HL-60, Leukemia cell line HL60, 48 h, read-out: Anti-tumoral activity (measured IC50) HL60
# Experimental: as §1, §2
# [21] = test system: MDAMB231; assay: CellTiter-Blue cell-based survival/proliferation assay, MDAMB231; details: Homo sapiens, MDA-MB-231; MDAMB231 breast tumor cell line, 48 h
# Experimental: as §1, §2
# [22] = test system: ACHN; assay: CellTiter-Blue cell-based survival/proliferation assay, ACHN; details: Homo sapiens; ACHN kidney tumor cell line, 48 h
# Experimental: as §1, §2
# [23] = test system: MESSA; assay: CellTiter-Blue cell-based survival/proliferation assay, MESSA; details: Homo sapiens, MES-SA; MESSA ovary tumor cell line, 48 h
# Experimental: as §1, §2
# [24] = test system: HEPG2; assay: CellTiter-Blue cell-based survival/proliferation assay, HEPG2; details: Homo sapiens; HEPG2 liver tumor cell line, 48 h
# Experimental: as §1, §2
# [25] = test system: CLS354; assay: CellTiter-Blue cell-based survival/proliferation assay, CLS354; details: Homo sapiens, CLS-354; CLS354_4 head & neck tumor cell line, 48 h
# Experimental: as §1, §2
# [26] = test system: AGS; assay: CellTiter-Blue cell-based survival/proliferation assay, AGS; details: Homo sapiens; AGS stomach tumor cell line, 48 h
# Experimental: as §1, §2
# [27] = test system: DU145; assay: CellTiter-Blue cell-based survival/proliferation assay, DU145; details: Homo sapiens, DU-145; DU145 prostate tumor cell line, 48 h
# Experimental: as §1, §2
# [28] = test system: OPM2; assay: CellTiter-Blue cell-based survival/proliferation assay, OPM2; details: Homo sapiens, OPM-2, Myeloma cell line OPM2, 48 h, read-out: Anti-tumoral activity (measured IC50) OPM2
# Experimental: as §1, §2
IC50 [10] [nM],Compound,IC50 [1] [nM],IC50 [2] [nM],IC50 [3] [nM],IC50 [4] [nM],IC50 [5] [nM],IC50 [6] [nM],IC50 [7] [nM],IC50 [8] [nM],IC50 [11] [nM],IC50 [13] [nM],IC50 [14] [nM],IC50 [15] [nM],IC50 [16] [nM],IC50 [17] [nM],IC50 [18] [nM],IC50 [20] [nM],IC50 [21] [nM],IC50 [22] [nM],IC50 [23] [nM],also measured
≤ 100,"CCOCc1cccc(Nc2ncc(-c3ccc(-n4cccn4)cc3)o2)c1 [Example 020, (3-Ethoxymethyl-phenyl)-[5-(4-pyrazol-1-yl-phenyl)-oxazol-2-yl]-amine]",500 to 1000,100 to 500,≤ 100,> 1000,> 1000,> 1000,> 1000,> 1000,> 1000,> 1000,> 1000,> 1000,> 1000,> 1000,> 1000,≤ 100,100 to 500,> 1000,> 1000,IC50 [9]: ≤ 100 nM; IC50 [12]: ≤ 100 nM; IC50 [19]: ≤ 100 nM; IC50 [24]: > 1000 nM; IC50 [25]: ≤ 100 nM; IC50 [26]: > 1000 nM; IC50 [27]: > 1000 nM; IC50 [28]: ≤ 100 nM
100 to 500,"COc1ccc(C)c(Nc2ncc(-c3ccc(-n4cccn4)cc3)o2)c1 [Example 023, (5-Methoxy-2-methyl-phenyl)-[5-(4-pyrazol-1-yl-phenyl)-oxazol-2-yl]-amine]",> 1000,> 1000,> 1000,> 1000,> 1000,> 1000,> 1000,> 1000,> 1000,> 1000,> 1000,> 1000,> 1000,> 1000,> 1000,100 to 500,> 1000,> 1000,> 1000,IC50 [9]: 100 to 500 nM; IC50 [12]: 100 to 500 nM; IC50 [19]: 100 to 500 nM; IC50 [24]: > 1000 nM; IC50 [25]: 100 to 500 nM; IC50 [26]: > 1000 nM; IC50 [27]: > 1000 nM; IC50 [28]: 100 to 500 nM
> 1000,"CC(=O)NCCOCc1ccc(C)c(Nc2ncc(-c3ccc(-n4cccn4)cc3)o2)c1 [Example 025, N-(2-{4-Methyl-3-[5-(4-pyrazol-1-yl-phenyl)-oxazol-2-ylamino]-benzyloxy}-ethyl)-acetamide]",> 1000,> 1000,> 1000,> 1000,> 1000,> 1000,> 1000,> 1000,> 1000,> 1000,> 1000,> 1000,> 1000,> 1000,> 1000,> 1000,> 1000,> 1000,> 1000,IC50 [9]: > 1000 nM; IC50 [12]: > 1000 nM; IC50 [19]: > 1000 nM; IC50 [24]: > 1000 nM; IC50 [25]: > 1000 nM; IC50 [26]: > 1000 nM; IC50 [27]: > 1000 nM; IC50 [28]: > 1000 nM

# The next lines start with the compound.
Compound,IC50 [10] [nM],IC50 [1] [nM],IC50 [2] [nM],IC50 [3] [nM],IC50 [4] [nM],IC50 [5] [nM],IC50 [6] [nM],IC50 [7] [nM],IC50 [8] [nM],IC50 [11] [nM],IC50 [13] [nM],IC50 [14] [nM],IC50 [15] [nM],IC50 [16] [nM],IC50 [17] [nM],IC50 [18] [nM],IC50 [20] [nM],IC50 [21] [nM],IC50 [22] [nM],IC50 [23] [nM],also measured
"CCOCc1cc(C)cc(Nc2ncc(-c3ccc(-n4cccn4)cc3)o2)c1 [Example 021, (3-Ethoxymethyl-5-methyl-phenyl)-[5-(4-pyrazol-1-yl-phenyl)-oxazol-2-yl]-amine]",100 to 500,> 1000,500 to 1000,500 to 1000,> 1000,> 1000,> 1000,> 1000,> 1000,> 1000,> 1000,> 1000,> 1000,> 1000,> 1000,> 1000,100 to 500,> 1000,> 1000,> 1000,IC50 [9]: 500 to 1000 nM; IC50 [12]: 100 to 500 nM; IC50 [19]: 100 to 500 nM; IC50 [24]: > 1000 nM; IC50 [25]: 100 to 500 nM; IC50 [26]: > 1000 nM; IC50 [27]: > 1000 nM; IC50 [28]: 100 to 500 nM
"CCOCc1cc(COCC)cc(Nc2ncc(-c3ccc(-n4cccn4)cc3)o2)c1 [Example 022, (3,5-Bis-(ethoxymethyl)-phenyl)-[5-(4-pyrazol-1-yl-phenyl)-oxazol-2-yl]-amine]",500 to 1000,> 1000,> 1000,> 1000,> 1000,> 1000,> 1000,> 1000,> 1000,> 1000,> 1000,> 1000,> 1000,> 1000,> 1000,> 1000,> 1000,> 1000,> 1000,> 1000,IC50 [9]: > 1000 nM; IC50 [12]: 100 to 500 nM; IC50 [19]: 500 to 1000 nM; IC50 [24]: > 1000 nM; IC50 [25]: > 1000 nM; IC50 [26]: > 1000 nM; IC50 [27]: > 1000 nM; IC50 [28]: 500 to 1000 nM
"Cc1ccc(COCCN)cc1Nc1ncc(-c2ccc(-n3cccn3)cc2)o1 [Example 024, [5-(2-Amino-ethoxymethyl)-2-methyl-phenyl]-[5-(4-pyrazol-1-yl-phenyl)-oxazol-2-yl]-amine]",> 1000,> 1000,> 1000,> 1000,> 1000,> 1000,> 1000,> 1000,> 1000,> 1000,> 1000,> 1000,> 1000,> 1000,> 1000,> 1000,> 1000,> 1000,> 1000,> 1000,IC50 [9]: > 1000 nM; IC50 [12]: > 1000 nM; IC50 [19]: > 1000 nM; IC50 [24]: > 1000 nM; IC50 [25]: > 1000 nM; IC50 [26]: > 1000 nM; IC50 [27]: > 1000 nM; IC50 [28]: > 1000 nM
"CCOCc1ccc(C)c(Nc2ncc(-c3ccc(-c4ccnn4C)cc3)o2)c1 [Example 061, N-(5-(ethoxymethyl)-2-methylphenyl)-5-(4-(1-methyl-1H-pyrazol-5-yl)phenyl)oxazol-2-amine]",> 1000,> 1000,> 1000,> 1000,> 1000,> 1000,> 1000,> 1000,> 1000,> 1000,> 1000,> 1000,> 1000,> 1000,> 1000,> 1000,> 1000,> 1000,> 1000,> 1000,IC50 [24]: > 1000 nM; IC50 [25]: > 1000 nM; IC50 [26]: > 1000 nM; IC50 [27]: > 1000 nM; IC50 [28]: > 1000 nM
